For one experiment, the target named is T1, TRPC3 (Homo sapiens, UniProt Q13507).
T1 construct: expressed in transfected cells; host or cells: HEK293 (inducible expression)
T1 sequence (Q13507 1-921): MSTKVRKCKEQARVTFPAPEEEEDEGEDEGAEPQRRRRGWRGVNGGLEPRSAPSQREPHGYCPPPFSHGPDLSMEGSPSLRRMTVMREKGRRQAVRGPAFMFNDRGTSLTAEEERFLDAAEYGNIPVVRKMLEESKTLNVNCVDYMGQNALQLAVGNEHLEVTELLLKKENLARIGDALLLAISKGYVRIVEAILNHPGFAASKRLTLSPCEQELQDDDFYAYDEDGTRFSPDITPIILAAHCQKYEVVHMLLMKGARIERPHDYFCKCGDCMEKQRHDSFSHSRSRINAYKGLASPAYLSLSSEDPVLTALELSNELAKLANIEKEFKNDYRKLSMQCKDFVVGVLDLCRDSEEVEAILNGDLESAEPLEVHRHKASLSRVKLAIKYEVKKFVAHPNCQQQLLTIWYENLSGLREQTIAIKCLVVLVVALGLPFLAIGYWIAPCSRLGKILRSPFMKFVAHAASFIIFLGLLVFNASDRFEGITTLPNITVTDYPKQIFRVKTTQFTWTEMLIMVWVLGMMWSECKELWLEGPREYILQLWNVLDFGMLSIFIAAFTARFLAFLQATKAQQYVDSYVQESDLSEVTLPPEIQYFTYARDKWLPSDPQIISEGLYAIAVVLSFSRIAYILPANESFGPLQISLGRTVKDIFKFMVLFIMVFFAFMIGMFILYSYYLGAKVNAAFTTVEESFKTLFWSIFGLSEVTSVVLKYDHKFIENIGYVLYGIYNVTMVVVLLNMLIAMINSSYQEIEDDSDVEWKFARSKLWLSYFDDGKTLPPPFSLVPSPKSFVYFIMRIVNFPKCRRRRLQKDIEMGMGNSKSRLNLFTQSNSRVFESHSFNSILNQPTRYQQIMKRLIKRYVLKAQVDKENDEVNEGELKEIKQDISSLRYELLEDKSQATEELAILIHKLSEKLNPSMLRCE
Put plainly: FLIPR Ca2+ influx measurement, OAG-activated TRPC3 HEK293 cells. Type of experiment: cell-based. The settings on record: 30 μM OAG. The source says: In general, cells are provided which express a TRPC channel. Such cells can be produced using genetic methods known to a person skilled in the art. After having induced the expression of the TRPC channel, cells are usually plated into e.g. microtiter plates and grown. Usually the cells grow at the bottom of multiwell plates and are fixed. Thereafter, the cells are generally washed and loaded with a dye in a suitable loading buffer, preferably with a fluorescent dye such as fluo4am. After having removed the loading buffer, the cells are incubated with the test compound or modulator, in particular with a biochemical or chemical test compound as described above, e.g. in the form of a chemical compound library. Ca^2+ measurements can be carried out using e.g. a Fluorescence Imaging Plate Reader (FLIPR). To stimulate Ca^2+ influx through the TRPC channel a channel activator such as OAG should generally be applied.
TRPC3 and TRPC6 were directly activated by application of oleoyl-2-acetyl-sn-glycerol (OAG), a membrane permeable diacylglycerol analogue.
(A, C) Time-dependent changes of intracellular Ca^2+ concentration ([Ca^2+]i) of fluo-4-loaded induced TRPC3 HEK293 cells (A) and TRPC6 HEK293 cells (C). […] Measurements were performed in 96er well plates using FLIPR (Molecular Devices, Sunnyvale, Calif., USA) (B, D) Determination of norgestimates IC50 value on TRPC3 (B) and TRPC6 (D). […]

Experiment [1] relates to protease-activated receptor (PAR). The experiment can be described thus: Calcium release from ER in non-induced TRPC5 HEK293 FITR cells (PAR antagonism control). Type of experiment: cell-based. Conditions: 30 μM norgestimate, 10 min preincubation. As to the method: When these experiments were performed, no direct physiological stimuli of TRPC4 and TRPC5 were known. Therefore, both channels had to be stimulated indirectly, e.g. by application of trypsin, a protease-activated receptor (PAR) stimulating protease. […] PAR are G protein-coupled and their activation leads to calcium store depletion from endoplasmic reticulum (ER). This so called phosphatidylinositol (PI) response is independent of the channel's presence but consequently leads to activation of store-operated channels like TRPC4 and TRPC5. Basic prerequisite to measure the effect of norgestimate on both channels under these conditions is to exclude PAR antagonism of this potential channel inhibitor. […] Kinetics and quantity of calcium store release in cells treated with 30 μM norgestimate were not changed compared to untreated cells. Therefore, norgestimate is not a PAR antagonist and TRPC4 and TRPC5 activation via PAR stimulation is suitable to measure the channels inhibition by norgestimate.

The IC50 is the concentration that gives 50% inhibition.

For `C#C[C@]1(OC(C)=O)CC[C@H]2[C@@H]3CCC4=C/C(=N/O)CC[C@@H]4[C@H]3CC[C@@]21CC` [norgestimate, D-17β-acetoxy-B-ethyl-17α ethinyl-gon-4-en-3-one oxime], the IC50 against TRPC3 (FLIPR, n=2) came to 2.8 ± 0.4 µM. The “TRPC3-mediated Ca2+ influx following application of OAG” value on TRPC3 (cells preincubated with 30 μM norgestimate) is given as “strongly reduced”. In addition, in experiment [1], the “kinetics and quantity of calcium store release compared to untreated cells” value is “not changed”.

The values above are taken from patent US8455469B2, “Use of norgestimate as a selective inhibitor of TRPC3, TRPC6 and TRPC7 ion channels” (Sanofi, priority 2007, dated 2013).
